Test system: patients with chronic kidney disease anemia
Experiment: Phase 2 clinical trial in patients with chronic kidney disease anemia (hemoglobin, adverse events)
Format: in vivo, human
Settings: for mean rate of hemoglobin increase: end of dose-fixing period (5 weeks); for mean hemoglobin level: Weeks 6-14 (entire titration period); for cumulative percentage of patients achieving target hemoglobin range 10.0-11.0 g/dL and increase of ≥1.0 g/dL from baseline: entire 13-week treatment period; for TEAE, % of patients / TEAE, NE (total number of adverse events) / TEAE, n (number of patients experiencing adverse events) / Treatment-related TEAE, % of patients / Treatment-related TEAE, NE (total number of adverse events) / Treatment-related TEAE, n (number of patients experiencing adverse events): titration period
Method: A Phase 2, randomized, double-blind, placebo-controlled clinical study of Comp-1 in patients with chronic kidney disease anemia included a total treatment period of 13 weeks, divided into an initial 5-week dose-fixing period and a subsequent 8-week dose adjustment period (also referred to as the titration period). A total of 113 patients with renal anemia were initially randomized into the dose-fixing period. During the dose-fixing period, patients with renal anemia received Comp-1 8 mg, 12 mg, or 16 mg three times weekly (TIW), or a matching placebo. At the Week 6 study visit, a total of 44 eligible patients underwent a second randomization into the dose adjustment period (titration period). […] The starting dose in this phase was the same as the dose during the dose-fixing period and could be adjusted based on weekly hemoglobin values to maintain hemoglobin within the target range of 10.0-11.0 g/dL, inclusive. To maintain blinding, patients in the placebo group underwent pseudo-randomization and continued to receive matching placebo. During the study, patients were visited weekly to measure the primary efficacy indicator, i.e. hemoglobin level, and safety comparisons were made for patients entering the titration period according to dosing frequency (three times weekly (TIW) dosing vs. once weekly (QW) dosing).
The primary efficacy objective of the study was to compare the mean rate of hemoglobin increase (g/dL/week) at the end of the dose-fixing period (i.e., after 5 weeks of dosing) between the three Comp-1 dose groups and the placebo group. […] In the analysis of hemoglobin during the adjustment period (titration period), at Week 14 (i.e., at the end of the titration period or after 13 weeks of dosing), the mean levels of hemoglobin in the pooled Comp-1 TIW group and QW group were 10.74 g/dL and 10.09 g/dL, respectively, both maintained within the study target range of 10.0-11.0 g/dL inclusive, while the mean level of hemoglobin in the placebo group was 9.57 g/dL. During the later part of the adjustment period (titration period), i.e., Weeks 10-14, the mean levels of hemoglobin were >10.0 g/dL in all dose frequency groups including the placebo group: 10.73 g/dL and 10.77 g/dL in the pooled Comp-1 TIW and QW groups, respectively, and 10.26 g/dL in the placebo group. The change in hemoglobin level from baseline was 1.60 g/dL and 1.63 g/dL in the pooled Comp-1 TIW and QW groups, respectively, and 0.48 g/dL in the placebo group. […] In the analysis of hemoglobin throughout the entire adjustment period (titration period), i.e., Weeks 6-14, the mean hemoglobin levels in the pooled Comp-1 TIW and QW groups were 10.84 g/dL and 10.91 g/dL, respectively, compared to 10.23 g/dL in the placebo group. […] Throughout the entire 13-week treatment period, the cumulative percentage of patients achieving the target hemoglobin range of 10.0-11.0 g/dL inclusive and an increase of ≥1.0 g/dL from baseline was similar between the pooled Comp-1 TIW and QW groups: 100% and 90%, respectively, compared to 40% in the placebo group. Table 3 below provides a safety comparison for patients entering the titration period according to dosing frequency.
TEAE: treatment emergent adverse event; Treatment-related TEAE: treatment emergent adverse event considered related to treatment; N: number of patients; NE: total number of adverse events occurring; n: number of patients experiencing adverse events.

## O=C(O)CNC(=O)C1=C(O)C2(CCCC2)n2c(ccc2-c2ccccc2)C1=O [Comp-1, (6′-hydroxy-8′-oxo-3′-phenyl-8′H-spiro[cyclopentane-1,5′-indolizine]-7′-carbonyl)glycine]
8 mg TIW
  mean rate of hemoglobin increase: 0.2839 g/dL/week
12 mg TIW
  mean rate of hemoglobin increase: 0.3893 g/dL/week
16 mg TIW
  mean rate of hemoglobin increase: 0.4817 g/dL/week
Week 14, pooled QW group
  mean level of hemoglobin: 10.09 g/dL
Week 14, pooled TIW group
  mean level of hemoglobin: 10.74 g/dL
Pooled QW group
  mean hemoglobin level: 10.91 g/dL
  cumulative percentage of patients achieving target hemoglobin range 10.0-11.0 g/dL and increase of ≥1.0 g/dL from baseline: 90%
Pooled TIW group
  mean hemoglobin level: 10.84 g/dL
  cumulative percentage of patients achieving target hemoglobin range 10.0-11.0 g/dL and increase of ≥1.0 g/dL from baseline: 100%
Weeks 6-14, pooled QW group
  change in hemoglobin from baseline: 1.78 g/dL
Weeks 6-14, pooled TIW group
  change in hemoglobin from baseline: 1.71 g/dL
Weeks 10-14, pooled QW group
  change in hemoglobin level from baseline: 1.63 g/dL
  mean level of hemoglobin: 10.77 g/dL
Weeks 10-14, pooled TIW group
  change in hemoglobin level from baseline: 1.60 g/dL
  mean level of hemoglobin: 10.73 g/dL
Pooled QW, N = 20
  TEAE, % of patients: 70.0%
  TEAE, NE (total number of adverse events): 18
  TEAE, n (number of patients experiencing adverse events): 14
  Treatment-related TEAE, % of patients: 5.0%
  Treatment-related TEAE, NE (total number of adverse events): 1
  Treatment-related TEAE, n (number of patients experiencing adverse events): 1
Pooled TIW, N = 19
  TEAE, % of patients: 73.7%
  TEAE, NE (total number of adverse events): 39
  TEAE, n (number of patients experiencing adverse events): 14
  Treatment-related TEAE, % of patients: 10.5%
  Treatment-related TEAE, NE (total number of adverse events): 2
  Treatment-related TEAE, n (number of patients experiencing adverse events): 2

Reference: US20260199305A1, “LONG-ACTING ORAL PHARMACEUTICAL COMPRISING HYPOXIA-INDUCIBLE FACTOR PROLYL HYDROLASE INHIBITOR AND USE THEREOF” (Kind Pharmaceutical, priority 2023, published 2026)
